Publication PMC5515969, “Effects of 31 FDA approved small-molecule kinase inhibitors on isolated rat liver mitochondria” (Archives of Toxicology, 2016)
Like-named read-outs stand apart in the source and are kept apart here.

Columns and labels:
[1] = tested on: RCC I; test: RCC I activity in submitochondrial particles; assay type: biochemical, rat; design: key to RCC I at 10XCmax / RCC I at 100XCmax / RCC I at 50XCmax / RCC I at 30XCmax / RCC I at 20XCmax: activity relative to DMSO-treated controls (control set as 1 = 100%); conditions: 10XCmax; relative to DMSO treated samples
Description: (§1) KIs were incubated with submitochondrial particles (1 mg/ml) for 15 min and then RCC I–V activities measured. […] The activities of DMSO-treated samples (controls) were set as 1. […] The difference between the activity from rotenone-containing buffer and rotenone-absent buffer was considered as RCC I activity. […] For measuring RCC I/V and II activity, the changes in absorbance at 340 and 600 nm, respectively, were determined every 1 min for 6 min. For measuring RCC III and RCC IV, the changes in absorbance at 550 nm were measured every 10 s for 2 min.

[2] = target: T1, RCC II (Rattus norvegicus, UniProt P21913+Q641Z9+Q6PCT8+Q920L2); test: RCC II activity in submitochondrial particles; assay type: biochemical; design: key: activity relative to DMSO-treated controls (control set as 1 = 100%); conditions: relative to DMSO treated samples
T1 construct: Submitochondrial particles were prepared by subjecting the intact mitochondria to three successive freeze–thaw cycles; from tissue; host or cells: rat liver mitochondria, used as submitochondrial particles
T1 sequence (Q920L2 35-656): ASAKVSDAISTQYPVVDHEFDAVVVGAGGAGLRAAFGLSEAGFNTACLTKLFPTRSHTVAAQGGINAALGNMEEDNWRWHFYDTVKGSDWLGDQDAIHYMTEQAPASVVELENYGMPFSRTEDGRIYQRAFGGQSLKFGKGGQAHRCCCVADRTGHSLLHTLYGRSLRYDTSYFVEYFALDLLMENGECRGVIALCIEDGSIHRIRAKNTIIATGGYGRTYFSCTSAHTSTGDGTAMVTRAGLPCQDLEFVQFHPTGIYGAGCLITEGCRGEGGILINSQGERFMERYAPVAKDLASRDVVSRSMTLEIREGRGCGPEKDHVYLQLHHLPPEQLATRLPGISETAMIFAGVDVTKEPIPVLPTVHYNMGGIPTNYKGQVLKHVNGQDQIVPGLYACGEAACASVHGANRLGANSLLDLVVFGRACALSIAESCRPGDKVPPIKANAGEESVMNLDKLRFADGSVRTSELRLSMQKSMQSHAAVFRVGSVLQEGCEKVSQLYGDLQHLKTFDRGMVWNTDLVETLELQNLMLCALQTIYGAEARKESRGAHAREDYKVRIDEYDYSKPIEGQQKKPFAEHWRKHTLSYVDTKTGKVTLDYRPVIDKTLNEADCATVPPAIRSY
T1 sequence (P21913 31-282): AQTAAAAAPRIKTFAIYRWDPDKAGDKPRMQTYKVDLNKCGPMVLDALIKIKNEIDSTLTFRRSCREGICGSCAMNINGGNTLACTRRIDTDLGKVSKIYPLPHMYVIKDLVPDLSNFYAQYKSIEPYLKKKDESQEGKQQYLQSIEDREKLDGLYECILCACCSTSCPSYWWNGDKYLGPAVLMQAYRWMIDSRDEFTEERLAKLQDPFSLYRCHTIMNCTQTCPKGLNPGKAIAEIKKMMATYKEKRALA
T1 sequence (Q641Z9 1-169): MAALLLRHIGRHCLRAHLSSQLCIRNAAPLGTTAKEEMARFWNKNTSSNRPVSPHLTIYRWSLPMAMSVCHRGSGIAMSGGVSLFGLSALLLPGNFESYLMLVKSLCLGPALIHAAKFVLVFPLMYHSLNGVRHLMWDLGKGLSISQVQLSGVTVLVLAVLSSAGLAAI
T1 sequence (Q6PCT8 57-159): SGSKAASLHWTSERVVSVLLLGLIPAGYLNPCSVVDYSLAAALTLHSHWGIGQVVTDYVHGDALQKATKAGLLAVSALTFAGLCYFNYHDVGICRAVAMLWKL
Summary of the method: (§2)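 Kinase inhibitors were preincubated 15 min with submitochondrial particles (1 mg/ml) before complex activities were measured. RCC I was the rotenone-sensitive portion (activity without minus with rotenone). RCC I/V was read at 340 nm and RCC II at 600 nm every 1 min for 6 min. RCC III and IV were read at 550 nm every 10 s for 2 min. Activities are normalized to DMSO controls set as 1.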

[3] = tested on: RCC IV; test: RCC IV activity in submitochondrial particles; assay type: biochemical, rat; design: key to RCC IV at 50XCmax / RCC IV at 100XCmax: activity relative to DMSO-treated controls (control set as 1 = 100%); conditions: 50XCmax; relative to DMSO treated samples; in %
Description: as §1

[4] = tested on: isolated rat liver mitochondria; test: Mitochondrial swelling (absorbance at 535 nm); assay type: biochemical; conditions: difference in signal between KI and DMSO treated samples at the end of experiments; for Swelling 5XCmax: key: 0 indicates that the drug had no effects (negative)
[5] = tested on: RCC III; test: RCC III activity in submitochondrial particles; assay type: biochemical, rat; design: key to RCC III at 100XCmax: activity relative to DMSO-treated controls (control set as 1 = 100%); conditions: 100XCmax; relative to DMSO treated samples
Description: as §1

[6] = tested on: isolated rat liver mitochondria; test: Mitochondrial ROS production (CM-H2DCFDA); conditions: DMSO treated samples set as 1
[7] = tested on: isolated rat liver mitochondria; test: Mitochondrial oxygen consumption (glutamate/malate or succinate driven, state 4 and state 3); assay type: biochemical; conditions: DMSO treated samples set as 1; for State 3 respiration driven by succinate at 10XCmax: key: 0 indicates that the drug had no effects (negative); for State 3 respiration driven by succinate at 1XCmax: key: 0 indicates that the drug had no effects (negative)
Description: Rats were anesthetized by an intraperitoneal injection of Nembutal and the liver perfused with PBS to remove the blood. The liver was then cut into small pieces and homogenized using a Dounce type homogenizer in the ice-cold isolation buffer (IB) containing 200 mM sucrose, 10 mM Tris-MOPS, 1 mM EGTA (pH 7.4). The sample was then centrifuged at 600g for 10 min. The supernatant was further centrifuged at 7500g for 10 min, and the pellets was washed once with the IB and centrifuged again at 7500g for 10 min to collect mitochondria. […] Before drug treatment, the protein concentration was adjusted to 1 mg/ml using appropriate buffer. […] Briefly, mitochondrial and cytosolic fractions from four different preparations using four rats were diluted using the Laemmli protein loading buffer and subject to SDS-PAGE with 4–20% gradient gels. The proteins were blotted to PVDF membranes and detected using antibodies against GAPDH, ATP5A, UQCRC2, SDHB, and NDUFB8.
The aliquoted stock solutions were kept for less than one month and each tube was used only once. The KIs were added to the mitochondria at 1:1000 dilutions. […] The Cmax data were from clinical trials which used FDA recommend dosages, route of administration, and duration. […] The final concentration of DMSO for drug treatment was always 0.1%, and control treatments were 0.1% DMSO.
Briefly, mitochondria were incubated with the KIs for 5 min, and then split evenly and loaded to the sample tubes of two Oxytherm systems (Hansatech Instruments Ltd), with one system used for measuring glutamate/malate driven respiration and the other succinate-driven respiration, both of which were defined as state 4 respiration. After 3 min, ADP was added to measure the maximal oxygen consumption rate, which was defined as state 3 respiration. […] The oxygen consumption rate of DMSO-treated samples (controls) was set as 1.

[8] = design: method as in product labeling; conditions: ref product labeling; cited from earlier work
[9] = tested on: RCC V; test: RCC V activity in submitochondrial particles; assay type: biochemical, rat; conditions: relative to DMSO treated samples; for RCC V at 5XCmax: key: 0 indicates that the drug had no effects (negative)
Summary of the method: as §2

[10] = tested on: isolated rat liver mitochondria; test: Mitochondrial inner membrane potential (MMP), Rhodamine 123; assay type: biochemical; conditions: difference in signal between KI and DMSO treated samples at the end of experiments
Description: Fig. 3 KI effects on mitochondrial inner membrane potential (MMP). […] In a, c, data are means and standard derivations from three separate experiments. *p < 0.05 as compared to DMSO-treated samples at the end of experiments. In b, data are means of two independent experiments

[11] = tested on: isolated rat liver mitochondria; conditions: positive control alamethicin treated samples
[12] = cited from earlier work

Question: Which “RCC I at 10XCmax” value [1] does the source give for `COc1cc2ncnc(Nc3ccc(F)c(Cl)c3)c2cc1OCCCN1CCOCC1` [Gefitinib] here?
Answer: Its value is 0.

Question: What about the “RCC II at 1.0XCmax” value ([2]; 1.0XCmax) of the same compound?
Answer: The value was 0.

Question: What about the “RCC II at 2.5XCmax” value ([2]; 2.5XCmax) of the same compound?
Answer: Its value is 0.

Question: What about the “RCC II at 5XCmax” value ([2]; 5XCmax) of the same compound?
Answer: The value was 0.

Question: And the “RCC II at 10XCmax” value ([2]; 10XCmax)?
Answer: Its value is 0.

Question: And the “RCC II at 20XCmax” value ([2]; 20XCmax)?
Answer: Its value is 0.

Question: And the “RCC II at 30XCmax” value ([2]; 30XCmax)?
Answer: The value was 0.

Question: What about the “RCC II at 50XCmax” value ([2]; 50XCmax) of the same compound?
Answer: The value was 0.

Question: What about the “RCC II at 100XCmax” value ([2]; 100XCmax) of the same compound?
Answer: Its value is 0.

Question: What about the “RCC IV at 50XCmax” value [3] of the same compound?
Answer: The value was 0.

Question: And the “Swelling 1XCmax” value ([4]; 1XCmax)?
Answer: The value was 0.

Question: And the “Swelling 2.5XCmax” value ([4]; 2.5XCmax)?
Answer: Its value is 0.

Question: And the “Swelling 5XCmax” value ([4]; 5XCmax)?
Answer: Its value is 0.

Question: And the “Swelling 10XCmax” value ([4]; 10XCmax)?
Answer: The value was 0.

Question: What about the “Swelling 20XCmax” value ([4]; 20XCmax) of the same compound?
Answer: The value was 0.

Question: What about the “Swelling 30XCmax” value ([4]; 30XCmax) of the same compound?
Answer: The value was 0.

Question: What about the “Swelling 50XCmax” value ([4]; 50XCmax) of the same compound?
Answer: Its value is 0.

Question: What about the “Swelling 100XCmax” value ([4]; 100XCmax) of the same compound?
Answer: Its value is 0.

Question: And the “RCC III at 100XCmax” value [5]?
Answer: Its value is 0.

Question: And the “ROS measured by CM-H2DCFDA at 1XCmax” value ([6]; 1XCmax)?
Answer: Its value is 0.

Question: What about the “ROS measured by CM-H2DCFDA at 2.5XCmax” value ([6]; 2.5XCmax) of the same compound?
Answer: The value was 0.

Question: And the “ROS measured by CM-H2DCFDA at 5XCmax” value ([6]; 5XCmax)?
Answer: Its value is 0.

Question: What about the “ROS measured by CM-H2DCFDA at 10XCmax” value ([6]; 10XCmax) of the same compound?
Answer: Its value is 0.

Question: What about the “ROS measured by CM-H2DCFDA at 20XCmax” value ([6]; 20XCmax) of the same compound?
Answer: The value was 0.

Question: And the “ROS measured by CM-H2DCFDA at 30XCmax” value ([6]; 30XCmax)?
Answer: Its value is 0.

Question: And the “ROS measured by CM-H2DCFDA at 50XCmax” value ([6]; 50XCmax)?
Answer: Its value is 0.

Question: And the “ROS measured by CM-H2DCFDA at 100XCmax” value ([6]; 100XCmax)?
Answer: The value was 0.

Question: What about the “State 3 respiration driven by succinate at 1XCmax” value ([7]; 1XCmax) of the same compound?
Answer: The value was 0.

Question: What about the “State 4 respiration driven by succinate at 1XCmax” value ([7]; 1XCmax) of the same compound?
Answer: Its value is 0.

Question: And the “State 3 respiration driven by succinate at 2.5XCmax” value ([7]; 2.5XCmax)?
Answer: Its value is 0.

Question: What about the “State 4 respiration driven by succinate at 2.5XCmax” value ([7]; 2.5XCmax) of the same compound?
Answer: Its value is 0.

Question: And the “State 3 respiration driven by succinate at 5XCmax” value ([7]; 5XCmax)?
Answer: The value was 0.

Question: What about the “State 4 respiration driven by succinate at 5XCmax” value ([7]; 5XCmax) of the same compound?
Answer: The value was 0.

Question: What about the “State 3 respiration driven by succinate at 10XCmax” value ([7]; 10XCmax) of the same compound?
Answer: The value was 0.

Question: What about the “State 4 respiration driven by succinate at 10XCmax” value ([7]; 10XCmax) of the same compound?
Answer: Its value is 0.

Question: What about the “State 3 respiration driven by succinate at 20XCmax” value ([7]; 20XCmax) of the same compound?
Answer: The value was 0.

Question: What about the “State 4 respiration driven by succinate at 20XCmax” value ([7]; 20XCmax) of the same compound?
Answer: The value was 0.

Question: And the “State 3 respiration driven by succinate at 30XCmax” value ([7]; 30XCmax)?
Answer: The value was 0.

Question: And the “State 4 respiration driven by succinate at 30XCmax” value ([7]; 30XCmax)?
Answer: Its value is 0.

Question: And the “State 3 respiration driven by succinate at 50XCmax” value ([7]; 50XCmax)?
Answer: The value was 0.

Question: And the “State 4 respiration driven by succinate at 50XCmax” value ([7]; 50XCmax)?
Answer: The value was 0.

Question: And the “State 3 respiration driven by succinate at 100XCmax” value ([7]; 100XCmax)?
Answer: The value was 0.

Question: What about the “State 4 respiration driven by succinate at 100XCmax” value ([7]; 100XCmax) of the same compound?
Answer: The value was 0.

Question: What about the “Potential for cardiotoxicity (based on labeling)” value [8] of the same compound?
Answer: The value was 0.

Question: And the “RCC V at 5XCmax” value ([9]; 5XCmax)?
Answer: The value was 0.

Question: And the “RCC V at 50XCmax” value ([9]; 50XCmax)?
Answer: The value was 0.

Question: And the “MMP measured by Rhodamine 123 at 1XCmax” value ([10]; 1XCmax)?
Answer: Its value is 0.

Question: What about the “MMP measured by Rhodamine 123 at 2.5XCmax” value ([10]; 2.5XCmax) of the same compound?
Answer: Its value is 0.

Question: And the “MMP measured by Rhodamine 123 at 5XCmax” value ([10]; 5XCmax)?
Answer: Its value is 0.

Question: What about the “MMP measured by Rhodamine 123 at 10XCmax” value ([10]; 10XCmax) of the same compound?
Answer: Its value is 0.

Question: What about the “MMP measured by Rhodamine 123 at 20XCmax” value ([10]; 20XCmax) of the same compound?
Answer: The value was 0.

Question: And the “MMP measured by Rhodamine 123 at 30XCmax” value ([10]; 30XCmax)?
Answer: Its value is 0.

Question: And the “MMP measured by Rhodamine 123 at 50XCmax” value ([10]; 50XCmax)?
Answer: Its value is 0.

Question: What about the “MMP measured by Rhodamine 123 at 100XCmax” value ([10]; 100XCmax) of the same compound?
Answer: The value was 0.

Question: What about the “Cytochrome c release 1XCmax” value ([11]; 1XCmax) of the same compound?
Answer: The value was 0.

Question: What about the “Cytochrome c release 2.5XCmax” value ([11]; 2.5XCmax) of the same compound?
Answer: The value was 0.

Question: And the “Cytochrome c release 5XCmax” value ([11]; 5XCmax)?
Answer: Its value is 0.

Question: And the “Cytochrome c release 10XCmax” value ([11]; 10XCmax)?
Answer: The value was 0.

Question: What about the “Cytochrome c release 20XCmax” value ([11]; 20XCmax) of the same compound?
Answer: The value was 0.

Question: And the “Cytochrome c release 30XCmax” value ([11]; 30XCmax)?
Answer: Its value is 0.

Question: What about the “Cytochrome c release 50XCmax” value ([11]; 50XCmax) of the same compound?
Answer: Its value is 0.

Question: What about the “Cytochrome c release 100XCmax” value ([11]; 100XCmax) of the same compound?
Answer: Its value is 0.

Question: And the Cmax ([12]; human therapeutic Cmax at FDA recommended dosages, ref product labeling and drug approval packages at the official FDA website)?
Answer: Its Cmax is 0.27 µM.

Question: And the Cmax ([12]; read-out: Cmax at µM, therapeutic maximal blood concentration, ref product labeling)?
Answer: Its Cmax is 0.27 µM.

Question: What about the “Cmax” value ([12]; therapeutic maximal blood concentration, ref product labeling) of the same compound?
Answer: The value was 122 ng/mL.
